These are literature values, as cited in patent US4122157A, “Nitrofurantoin sustained release tablet” (Richardson-Merrell Inc., priority 1977, dated 1978).

For the data set the following is noted: background statement.

Regarding `O=C1CN(N=Cc2ccc([N+](=O)[O-])o2)C(=O)N1` [Nitrofurantoin, 1-[(5-nitrofurfurylidene)amino]hydantoin], the tolerability in humans result is on record as “remarkably well tolerated in humans”. For the same compound, the “most frequent adverse reactions” value (humans) was “anorexia, nausea and emesis”.
